# Test results from patent publication US9456602B2, “Method for the formulation of hand sanitizer” (Working Bugs, LLC, priority 2011, dated 2016).
# Columns and labels:
# S. marcescens bacteria [1] = experiment: Growth test of S. marcescens, 15 s exposure (Example 5); assay type: cell-based; conditions: exposed 15 seconds
# Description: (§1) Both S. marcescens and E. coil were cultured in CASO broth overnight. The cells were exposed to one of four compounds for 15 seconds: DE broth, 60% Isopropyl Alcohol (IPA), A hand sanitizer on the market with 62% ethanol as an active ingredient (HSM), and the hand sanitizer specified in the patent (WB). The samples were then diluted by factors of powers of ten from a 10^−1 dilution to a 10^−10 dilution. 0.1 mL of each dilution was then plated onto a CASO plate, and then incubated for 24 hours. For Example 5, there was no ethanol present in the hand sanitizer formulation. The formulation consisted of 45% by volume of n-butanol, 10% of the humectant, and the remainder being water. The protocol followed for Example 5 was the same as the protocol for Example 4.
# E. coli bacteria [2] = experiment: Growth test of E. coli, 15 s exposure, CASO plate (Example 4); assay type: cell-based; conditions: exposed 15 seconds, 0.1 mL plated
# Description: (§2) Both S. marcescens and E. coil were cultured in CASO broth overnight. The cells were exposed to one of four compounds for 15 seconds: DE broth, 60% Isopropyl Alcohol (IPA), A hand sanitizer on the market with 62% ethanol as an active ingredient (HSM), and the hand sanitizer specified in the patent (WB). The samples were then diluted by factors of powers of ten from a 10^−1 dilution to a 10^−10 dilution. 0.1 mL of each dilution was then plated onto a CASO plate, and then incubated for 24 hours. Note—the abbreviation “TNTC” stands for “too numerous to count”. “Lawn” represents a sample that was filled with bacteria.
# E. coli bacteria [3] = experiment: Growth test of E. coli after exposure to sanitizer, dilution plating (Example 2); assay type: cell-based
# Description: A 50 mL culture of the bacterium […] marcescens (S. marcescens) was grown, and four compounds were tested: an ethanol-based hand sanitizer currently on the market with 63% ethyl alcohol as the active ingredient, 60% isopropyl alcohol, and water as a control. 0.05 mL of the culture was exposed to one of the compounds for 15 and 60 seconds (except for the water, which was exposed for 30 seconds), and diluted by factors of powers of ten from a 10^-1 dilution to a 10^-10 dilution. 1 mL of each dilution was plated onto a CASO (a type of media) plate, and was incubated at 25 degrees Celsius (77 degrees Fahrenheit) for 48 hours. The colonies on the plates were then counted. The following is a table of the number of colonies on each plate (note-“Lawn” means that there were too many colonies to count individually). Example 2 followed the same protocol as Example 1, except E. coli bacteria were used instead of S. marcescens.
# E. coli bacteria [4] = experiment: Growth test of E. coli, different growth medium, 0.5 mL plated (Example 3); assay type: cell-based; conditions: exposed 10 s
# Description: A 50 mL culture of the bacterium […] marcescens (S. marcescens) was grown, and four compounds were tested: an ethanol-based hand sanitizer currently on the market with 63% ethyl alcohol as the active ingredient, 60% isopropyl alcohol, and water as a control. 0.05 mL of the culture was exposed to one of the compounds for 15 and 60 seconds (except for the water, which was exposed for 30 seconds), and diluted by factors of powers of ten from a 10^-1 dilution to a 10^-10 dilution. 1 mL of each dilution was plated onto a CASO (a type of media) plate, and was incubated at 25 degrees Celsius (77 degrees Fahrenheit) for 48 hours. The colonies on the plates were then counted. The following is a table of the number of colonies on each plate (note-“Lawn” means that there were too many colonies to count individually). Example 2 followed the same protocol as Example 1, except E. coli bacteria were used instead of S. marcescens. Example 3 followed the same protocol as Example 2, except for the following: A different type of growth medium was used on the plates, and 0.5 mL of culture was plated onto each plate instead of 1 mL in order to prevent flooding the plate. In this Example, 60% isopropanol, an ethanol-based hand sanitizer on the market and the hand sanitizer proposed in the patent were all exposed to bacteria for 10 seconds, than plated.
# [5] = test system: Seratia marcescens (S. marcescens); experiment: Growth test of S. marcescens after exposure to sanitizer, dilution plating (Example 1); assay type: cell-based
# Description: A 50 mL culture of the bacterium […] marcescens (S. marcescens) was grown, and four compounds were tested: an ethanol-based hand sanitizer currently on the market with 63% ethyl alcohol as the active ingredient, 60% isopropyl alcohol, and water as a control. 0.05 mL of the culture was exposed to one of the compounds for 15 and 60 seconds (except for the water, which was exposed for 30 seconds), and diluted by factors of powers of ten from a 10^-1 dilution to a 10^-10 dilution. 1 mL of each dilution was plated onto a CASO (a type of media) plate, and was incubated at 25 degrees Celsius (77 degrees Fahrenheit) for 48 hours. The colonies on the plates were then counted. The following is a table of the number of colonies on each plate (note-“Lawn” means that there were too many colonies to count individually).
# S. marcescens bacteria [6] = experiment: Growth test of S. marcescens, 15 s exposure, CASO plate (Example 4); assay type: cell-based; conditions: exposed 15 seconds, 0.1 mL plated
# Description: as §2
# E. coli bacteria [7] = experiment: Growth test of E. coli, 15 s exposure (Example 5); assay type: cell-based; conditions: exposed 15 seconds
# Description: as §1
# microorganisms = conditions: 1996 paper, Fundamental and Applied Toxicology; cited from earlier work
compound,measurement,setting,value
"CC(C)O [IPA, isopropyl alcohol]",growth test plate count,S. marcescens bacteria [1]; 10^−1 dilution,0
same,growth test plate count,S. marcescens bacteria [1]; 10^−2 dilution,0
same,growth test plate count,S. marcescens bacteria [1]; 10^−3 dilution,0
same,growth test plate count,S. marcescens bacteria [1]; 10^−4 dilution,0
same,growth test plate count,S. marcescens bacteria [1]; 10^−5 dilution,0
same,growth test plate count,E. coli bacteria [2]; 10^−1 dilution,0
same,growth test plate count,E. coli bacteria [2]; 10^−2 dilution,0
same,growth test plate count,E. coli bacteria [2]; 10^−3 dilution,0
same,growth test plate count,E. coli bacteria [2]; 10^−4 dilution,0
same,growth test plate count,E. coli bacteria [2]; 10^−5 dilution,0
same,number of colonies on plate,"E. coli bacteria [3]; exposed 15 s, 10^−1 dilution",0 colonies
same,number of colonies on plate,"E. coli bacteria [3]; exposed 15 s, 10^−2 dilution",0 colonies
same,number of colonies on plate,"E. coli bacteria [3]; exposed 15 s, 10^−3 dilution",0 colonies
same,number of colonies on plate,"E. coli bacteria [3]; exposed 15 s, 10^−4 dilution",0 colonies
same,number of colonies on plate,"E. coli bacteria [3]; exposed 15 s, 10^−5 dilution",0 colonies
same,number of colonies on plate,"E. coli bacteria [3]; exposed 15 s, 10^−6 dilution",0 colonies
same,number of colonies on plate,"E. coli bacteria [3]; exposed 15 s, 10^−7 dilution",0 colonies
same,number of colonies on plate,"E. coli bacteria [3]; exposed 15 s, 10^−8 dilution",0 colonies
same,number of colonies on plate,"E. coli bacteria [3]; exposed 15 s, 10^−9 dilution",0 colonies
same,number of colonies on plate,"E. coli bacteria [3]; exposed 15 s, 10^−10 dilution",0 colonies
same,number of colonies on plate,"E. coli bacteria [3]; exposed 60 s, 10^−1 dilution",0 colonies
same,number of colonies on plate,"E. coli bacteria [3]; exposed 60 s, 10^−2 dilution",0 colonies
same,number of colonies on plate,"E. coli bacteria [3]; exposed 60 s, 10^−3 dilution",0 colonies
same,number of colonies on plate,"E. coli bacteria [3]; exposed 60 s, 10^−4 dilution",0 colonies
same,number of colonies on plate,"E. coli bacteria [3]; exposed 60 s, 10^−5 dilution",0 colonies
same,number of colonies on plate,"E. coli bacteria [3]; exposed 60 s, 10^−6 dilution",0 colonies
same,number of colonies on plate,"E. coli bacteria [3]; exposed 60 s, 10^−7 dilution",0 colonies
same,number of colonies on plate,"E. coli bacteria [3]; exposed 60 s, 10^−8 dilution",0 colonies
same,number of colonies on plate,"E. coli bacteria [3]; exposed 60 s, 10^−9 dilution",0 colonies
same,number of colonies on plate,"E. coli bacteria [3]; exposed 60 s, 10^−10 dilution",0 colonies
same,number of colonies on plate,E. coli bacteria [4]; 10^−1 dilution,0 colonies
same,number of colonies on plate,E. coli bacteria [4]; 10^−2 dilution,0 colonies
same,number of colonies on plate,E. coli bacteria [4]; 10^−3 dilution,0 colonies
same,number of colonies on plate,E. coli bacteria [4]; 10^−4 dilution,0 colonies
same,number of colonies on plate,E. coli bacteria [4]; 10^−5 dilution,0 colonies
same,number of colonies on plate,E. coli bacteria [4]; 10^−6 dilution,0 colonies
same,number of colonies on plate,E. coli bacteria [4]; 10^−7 dilution,0 colonies
same,number of colonies on plate,E. coli bacteria [4]; 10^−8 dilution,0 colonies
same,number of colonies on plate,E. coli bacteria [4]; 10^−9 dilution,0 colonies
same,number of colonies on plate,E. coli bacteria [4]; 10^−10 dilution,0 colonies
same,number of colonies on plate,"[5]; exposed 15 s, 10^−1 dilution",0 colonies
same,number of colonies on plate,"[5]; exposed 15 s, 10^−2 dilution",0 colonies
same,number of colonies on plate,"[5]; exposed 15 s, 10^−3 dilution",0 colonies
same,number of colonies on plate,"[5]; exposed 15 s, 10^−4 dilution",0 colonies
same,number of colonies on plate,"[5]; exposed 15 s, 10^−5 dilution",0 colonies
same,number of colonies on plate,"[5]; exposed 15 s, 10^−6 dilution",0 colonies
same,number of colonies on plate,"[5]; exposed 15 s, 10^−7 dilution",0 colonies
same,number of colonies on plate,"[5]; exposed 15 s, 10^−8 dilution",0 colonies
same,number of colonies on plate,"[5]; exposed 15 s, 10^−9 dilution",0 colonies
same,number of colonies on plate,"[5]; exposed 15 s, 10^−10 dilution",0 colonies
same,number of colonies on plate,"[5]; exposed 60 s, 10^−1 dilution",0 colonies
same,number of colonies on plate,"[5]; exposed 60 s, 10^−2 dilution",0 colonies
same,number of colonies on plate,"[5]; exposed 60 s, 10^−3 dilution",0 colonies
same,number of colonies on plate,"[5]; exposed 60 s, 10^−4 dilution",0 colonies
same,number of colonies on plate,"[5]; exposed 60 s, 10^−5 dilution",0 colonies
same,number of colonies on plate,"[5]; exposed 60 s, 10^−6 dilution",0 colonies
same,number of colonies on plate,"[5]; exposed 60 s, 10^−7 dilution",0 colonies
same,number of colonies on plate,"[5]; exposed 60 s, 10^−8 dilution",0 colonies
same,number of colonies on plate,"[5]; exposed 60 s, 10^−9 dilution",0 colonies
same,number of colonies on plate,"[5]; exposed 60 s, 10^−10 dilution",0 colonies
same,growth test plate count,S. marcescens bacteria [6]; 10^−1 dilution,1
same,growth test plate count,S. marcescens bacteria [6]; 10^−2 dilution,3
same,growth test plate count,S. marcescens bacteria [6]; 10^−3 dilution,10
same,growth test plate count,S. marcescens bacteria [6]; 10^−4 dilution,6
same,growth test plate count,S. marcescens bacteria [6]; 10^−5 dilution,2
same,growth test plate count,E. coli bacteria [7]; 10^−1 dilution,0
same,growth test plate count,E. coli bacteria [7]; 10^−2 dilution,0
same,growth test plate count,E. coli bacteria [7]; 10^−3 dilution,0
same,growth test plate count,E. coli bacteria [7]; 10^−4 dilution,0
same,growth test plate count,E. coli bacteria [7]; 10^−5 dilution,0
CCCO [1-propanol],effectiveness in killing microorganisms compared with ethanol,microorganisms,more effective
CCCCO [1-butanol],effectiveness in killing microorganisms compared with ethanol,microorganisms,more effective
CCCCCO [1-pentanol],effectiveness in killing microorganisms compared with ethanol,microorganisms,more effective
